Test results from ChEMBL document CHEMBL1143305, “SAR and biological evaluation of analogues of a small molecule histone deacetylase inhibitor N-(2-aminophenyl)-4-((4-(pyridin-3-yl)pyrimidin-2-ylamino)methyl)benzamide (MGCD0103)” (Bioorg Med Chem Lett, 2009).
In brackets after ≈: the same amount, converted by molar mass. Activity calls are given as the source filed them. The calls are words filed in the database; no cut-off is given here.

Assays:
[1] = Antitumor activity against human TSU-Pr1 cells xenografted in mouse at 10 mg/kg, po administered once daily for 12 days relative to control; assay type: functional
[2] = Metabolic stability in rat microsomes assessed as biotransformation rate; assay type: ADME, Microsome
Mus musculus [3] = assay: Toxicity in mouse xenografted with human HCT15 cells at 5 to 20 mg/kg, po administered once daily for 12 days; assay type: organism-based, HCT-15; parameters: dose 5-20 mg/kg, route oral; conditions: in vivo, 288 h
[4] = Terminal half life in Sprague-Dawley rat at 2.5 mg/kg, iv up to 6 hrs; assay type: ADME, organism-based; parameters: dose 2.5 mg/kg, route intravenous; conditions: in vivo, read-out: beta t1/2 (converted)
[5] = Antitumor activity against human AZ-521 cells xenografted in mouse at 5 mg/kg, po administered once daily for 12 days relative to control; assay type: functional
HMEC = assay: Selectivity ratio of IC50 for HMEC to IC50 for human HCT116 cells
Histone deacetylase 3 = Histone deacetylase 3 (Homo sapiens, UniProt O15379); assay: Inhibition of HDAC3
Sequence of Histone deacetylase 3 (O15379 whole entry): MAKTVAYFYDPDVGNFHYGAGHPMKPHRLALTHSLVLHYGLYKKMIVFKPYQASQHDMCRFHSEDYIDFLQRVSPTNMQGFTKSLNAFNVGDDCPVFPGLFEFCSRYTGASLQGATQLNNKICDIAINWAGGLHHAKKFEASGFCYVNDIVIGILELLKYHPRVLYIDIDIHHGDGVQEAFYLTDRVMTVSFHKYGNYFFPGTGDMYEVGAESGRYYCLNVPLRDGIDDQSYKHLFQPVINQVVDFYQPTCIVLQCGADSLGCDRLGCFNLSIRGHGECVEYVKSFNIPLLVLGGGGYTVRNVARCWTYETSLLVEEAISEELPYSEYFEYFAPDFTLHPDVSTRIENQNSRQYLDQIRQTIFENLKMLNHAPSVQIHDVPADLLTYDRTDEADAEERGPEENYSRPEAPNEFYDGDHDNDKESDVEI

T-24 = assay: Induction of histone H4 hyperacetylation in human T24 cells after 16 hrs by immunoblotting; assay type: functional, cell-based; conditions: T-24, 16 h
[6] = biological target: T1, Protein deacetylase HDAC6 (Homo sapiens, UniProt Q9UBN7); assay: Inhibition of HDAC6
T1 sequence (Q9UBN7 whole entry): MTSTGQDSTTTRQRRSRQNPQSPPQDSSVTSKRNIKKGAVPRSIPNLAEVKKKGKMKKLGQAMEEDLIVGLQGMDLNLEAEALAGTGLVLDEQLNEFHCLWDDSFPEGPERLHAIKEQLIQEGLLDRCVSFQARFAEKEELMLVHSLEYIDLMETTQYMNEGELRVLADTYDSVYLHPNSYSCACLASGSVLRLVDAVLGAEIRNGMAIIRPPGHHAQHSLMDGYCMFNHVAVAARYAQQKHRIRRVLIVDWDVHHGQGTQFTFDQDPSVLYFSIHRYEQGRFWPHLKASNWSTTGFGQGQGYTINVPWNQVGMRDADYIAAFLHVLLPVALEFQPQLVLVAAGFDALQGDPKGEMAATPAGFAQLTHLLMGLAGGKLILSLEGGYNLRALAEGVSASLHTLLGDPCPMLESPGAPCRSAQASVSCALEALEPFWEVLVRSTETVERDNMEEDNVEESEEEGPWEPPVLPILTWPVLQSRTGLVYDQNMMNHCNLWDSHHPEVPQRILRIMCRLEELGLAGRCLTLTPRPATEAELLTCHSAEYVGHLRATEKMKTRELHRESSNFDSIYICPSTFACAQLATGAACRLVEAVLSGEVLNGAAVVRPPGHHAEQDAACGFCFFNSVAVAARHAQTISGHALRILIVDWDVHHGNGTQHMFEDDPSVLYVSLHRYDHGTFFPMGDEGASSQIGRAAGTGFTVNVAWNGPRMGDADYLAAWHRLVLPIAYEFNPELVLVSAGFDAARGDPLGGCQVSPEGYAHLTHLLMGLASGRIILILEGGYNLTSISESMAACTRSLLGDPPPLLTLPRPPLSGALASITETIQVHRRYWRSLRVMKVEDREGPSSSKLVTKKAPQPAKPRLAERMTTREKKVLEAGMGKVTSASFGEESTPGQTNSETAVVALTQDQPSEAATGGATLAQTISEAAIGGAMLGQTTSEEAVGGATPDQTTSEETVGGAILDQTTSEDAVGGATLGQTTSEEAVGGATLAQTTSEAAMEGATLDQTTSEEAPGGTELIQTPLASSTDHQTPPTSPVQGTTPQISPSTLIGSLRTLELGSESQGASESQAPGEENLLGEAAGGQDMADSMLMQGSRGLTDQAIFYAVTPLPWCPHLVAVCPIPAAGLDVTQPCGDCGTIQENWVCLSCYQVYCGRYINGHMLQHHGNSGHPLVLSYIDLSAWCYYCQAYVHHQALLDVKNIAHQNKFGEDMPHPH

Mus musculus [7] = assay: Toxicity in mouse xenografted with human AZ-521 cells at 5 to 20 mg/kg, po administered once daily for 12 days; assay type: organism-based; parameters: dose 5-20 mg/kg, route oral; conditions: in vivo, 288 h
[8] = Metabolic stability in mouse microsomes assessed as biotransformation rate; assay type: ADME, Microsome
HCT-116 = assay: Induction of p21WAF1/CIP1 expression in human HCT116 cells assessed as […] after 16 hrs by luciferase assay; assay type: functional, cell-based
[9] = Antitumor activity against human AZ-521 cells xenografted in mouse at 10 mg/kg, po administered once daily for 12 days relative to control; assay type: functional
Mus musculus [10] = assay: Toxicity in mouse xenografted with human TSU-Pr1 cells at 5 to 20 mg/kg, po administered once daily for 12 days; assay type: organism-based; parameters: dose 5-20 mg/kg, route oral; conditions: in vivo, 288 h
HCT-15 = assay: Antitumor activity against human HCT15 cells xenografted in mouse at 5 mg/kg, po administered once daily for 12 days relative to control; assay type: functional
[11] = Solubility at pH 6.8; assay type: physicochemical; conditions: buffer
[12] = Solubility at pH 1.2; assay type: physicochemical; conditions: buffer
[13] = Metabolic stability in human microsomes assessed as biotransformation rate; assay type: ADME, Microsome
Histone deacetylase 1 = Histone deacetylase 1 (Homo sapiens, UniProt Q13547); assay: Inhibition of human recombinant HDAC1
Sequence of Histone deacetylase 1 (Q13547 whole entry): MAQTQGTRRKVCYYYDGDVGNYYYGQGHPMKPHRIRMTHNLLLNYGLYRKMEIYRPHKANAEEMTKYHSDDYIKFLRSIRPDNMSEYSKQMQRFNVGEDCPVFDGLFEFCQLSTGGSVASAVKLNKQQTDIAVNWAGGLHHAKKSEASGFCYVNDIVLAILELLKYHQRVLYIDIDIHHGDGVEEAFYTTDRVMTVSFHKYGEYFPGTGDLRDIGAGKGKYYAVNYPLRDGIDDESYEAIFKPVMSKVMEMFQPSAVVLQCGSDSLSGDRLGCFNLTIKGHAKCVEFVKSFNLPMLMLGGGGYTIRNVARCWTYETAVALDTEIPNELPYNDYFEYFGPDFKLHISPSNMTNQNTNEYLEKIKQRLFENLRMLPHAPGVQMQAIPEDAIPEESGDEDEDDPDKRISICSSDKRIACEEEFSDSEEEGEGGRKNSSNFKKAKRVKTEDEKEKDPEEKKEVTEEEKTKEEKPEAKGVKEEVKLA

[14] = Antitumor activity against human TSU-Pr1 cells xenografted in mouse at 20 mg/kg, po administered once daily for 12 days relative to control; assay type: functional
[15] = Clearance in Sprague-Dawley rat at 2.5 mg/kg, iv up to 6 hrs; assay type: ADME, organism-based; parameters: dose 2.5 mg/kg, route intravenous; conditions: in vivo

With `Nc1ccccc1NC(=O)c1ccc(CNc2nccc(-c3ccn[nH]3)n2)cc1` the T/C [1] was 61%, the Activity [2] was 0.043 nmol/mg/min and the Activity (Mus musculus [3]) was “Non-toxic”. The half-life [4] was 1.2 h, the T/C [5] was 43% and the “Ratio IC50” value (HMEC) was >30. The IC50 (Histone deacetylase 3) was 0.32 µM, the EC50 (T-24) was 1 µM and the IC50 [6] was > 20 µM. For the same compound, the Activity (Mus musculus [7]) was “Non-toxic”, the Activity [8] was 0.054 nmol/mg/min and the Activity (HCT-116) was “inactive”. The T/C [9] was 53%, the Activity (Mus musculus [10]) was “Non-toxic” and the T/C (HCT-15) was 79%. For the same compound, the solubility [11] was 0.077 mg/mL (≈ 200 µM), the solubility [12] was > 1 mg/mL and the Activity [13] was 0.01 nmol/mg/min. It also gave an IC50 (Histone deacetylase 1) of 0.14 µM, a T/C [14] of 48% and a clearance [15] of 0.55 L/h/kg.
